Entries after “also recorded” stand apart in the source; their conditions may differ.
Tested on: Ba
Assay: Phase 2a study: urinary Ba (MicroVue Ba Enzyme Immunoassay)
Assay type: in vivo, human
Conditions: for Urine Ba / Ba/ALB / Ba/Cr: 200 mg TID; for Ba/ALB GEOMEAN / Ba/ALB MEAN / Ba/Cr GEOMEAN / Ba/Cr MEAN / Urine Ba MEAN / Urine Ba GEOMEAN: patients A-F

## CC(=O)c1nn(CC(=O)N2C[C@H](F)C[C@H]2C(=O)Nc2cccc(Br)n2)c2ccc(-c3cnc(C)nc3)cc12 [Compound 1, (2S,4R)-1-(2-(3-acetyl-5-(2-methylpyrimidin-5-yl)-1H-indazol-1-yl)acetyl)-N-(6-bromopyridin-2-yl)-4-fluoropyrrolidine-2-carboxamide]
Patient D, Day 21 Taper
  Urine Ba: 18.6 ng/mL
Patient D, Follow-Up Day 24
  Ba/ALB: 14.9 ng/mg
  Ba/Cr: 4.2 µg/mmol
  Urine Ba: 28.7 ng/mL
Patient D, Follow-Up Day 28
  Ba/ALB: 10.8 ng/mg
  Ba/Cr: 6.2 µg/mmol
  Urine Ba: 30.0 ng/mL
Patient D, Follow-Up Day 49
  Ba/ALB: 3.8 ng/mg
  Ba/Cr: 2.4 µg/mmol
  Urine Ba: 9.4 ng/mL
Patient D, Screen
  Ba/ALB: 19.2 ng/mg
  Ba/Cr: 11.1 µg/mmol
  Urine Ba: 84.4 ng/mL
Patient E, Day 1/0 Hour
  Ba/ALB: 33.5 ng/mg
  Ba/Cr: 14.2 µg/mmol
  Urine Ba: 252 ng/mL
Patient E, Day 4
  Ba/ALB: 14.7 ng/mg
  Ba/Cr: 6.2 µg/mmol
  Urine Ba: 129 ng/mL
Patient E, Day 7/0 Hour
  Ba/ALB: 17.3 ng/mg
  Ba/Cr: 9.2 µg/mmol
  Urine Ba: 142 ng/mL
Patient E, Day 10
  Ba/ALB: 12.8 ng/mg
  Ba/Cr: 8.0 µg/mmol
  Urine Ba: 106 ng/mL
Patient E, Day 14
  Ba/ALB: 6.9 ng/mg
  Ba/Cr: 1.8 µg/mmol
  Urine Ba: 41 ng/mL
Patient E, Day 15 Taper
  Ba/ALB: 3.6 ng/mg
  Ba/Cr: 1.2 µg/mmol
  Urine Ba: 11 ng/mL
Patient E, Day 16 Taper
  Ba/ALB: 7.2 ng/mg
  Ba/Cr: 2.0 µg/mmol
  Urine Ba: 20 ng/mL
Patient E, Day 17 Taper
  Ba/ALB: 12.7 ng/mg
  Ba/Cr: 6.0 µg/mmol
  Urine Ba: 47 ng/mL
Patient E, Day 21 Taper
  Ba/ALB: 21.6 ng/mg
  Ba/Cr: 5.5 µg/mmol
  Urine Ba: 42 ng/mL
Patient E, Follow-Up Day 24
  Ba/ALB: 41.2 ng/mg
  Ba/Cr: 12.5 µg/mmol
  Urine Ba: 156 ng/mL
Patient E, Follow-Up Day 28
  Ba/ALB: 46.1 ng/mg
  Ba/Cr: 14.1 µg/mmol
  Urine Ba: 234 ng/mL
Patient E, Follow-Up Day 49
  Ba/ALB: 40.0 ng/mg
  Ba/Cr: 13.1 µg/mmol
  Urine Ba: 207 ng/mL
Patient F, Day 1/0 Hour
  Ba/ALB: 25.9 ng/mg
  Ba/Cr: 7.6 µg/mmol
  Urine Ba: 74.9 ng/mL
Patient F, Day 4
  Ba/ALB: 7.6 ng/mg
  Ba/Cr: 1.2 µg/mmol
  Urine Ba: 5.7 ng/mL
Patient F, Day 7/0 Hour
  Ba/ALB: 5.7 ng/mg
  Ba/Cr: 0.5 µg/mmol
  Urine Ba: 2.1 ng/mL
Patient F, Day 10
  Urine Ba: 2.1 ng/mL
Patient F, Day 14
  Ba/ALB: 5.8 ng/mg
  Ba/Cr: 1.1 µg/mmol
  Urine Ba: 9.8 ng/mL
Patient F, Day 15 Taper
  Ba/ALB: 0.6 ng/mg
  Ba/Cr: 0.5 µg/mmol
  Urine Ba: 2.8 ng/mL
Patient F, Day 16 Taper
  Ba/ALB: 2.6 ng/mg
  Ba/Cr: 0.6 µg/mmol
  Urine Ba: 2.2 ng/mL
Patient F, Day 17 Taper
  Ba/ALB: 1.6 ng/mg
  Ba/Cr: 0.7 µg/mmol
  Urine Ba: 6.9 ng/mL
Patient F, Day 21 Taper
  Ba/ALB: 1.5 ng/mg
  Ba/Cr: 0.5 µg/mmol
  Urine Ba: 6.6 ng/mL
Patient F, Follow-Up Day 24
  Ba/ALB: 1.5 ng/mg
  Ba/Cr: 0.4 µg/mmol
  Urine Ba: 2.2 ng/mL
Patient F, Follow-Up Day 28
  Ba/ALB: 2.5 ng/mg
  Ba/Cr: 0.6 µg/mmol
  Urine Ba: 2.8 ng/mL
Patient F, Follow-Up Day 49
  Ba/Cr: 8.2 µg/mmol
  Urine Ba: 44.4 ng/mL
Day 1/0 Hour
  Ba/ALB GEOMEAN: 22.6 ng/mg
  Ba/ALB MEAN: 53.4 ng/mg
  Ba/Cr GEOMEAN: 5.7 µg/mmol
  Ba/Cr MEAN: 26.7 µg/mmol
  Urine Ba MEAN: 197 ng/mL
Day 4
  Ba/ALB GEOMEAN: 7.8 ng/mg
  Ba/ALB MEAN: 13.8 ng/mg
  Ba/Cr GEOMEAN: 1.4 µg/mmol
  Ba/Cr MEAN: 3.8 µg/mmol
  Urine Ba GEOMEAN: 9.1 ng/mL
  Urine Ba MEAN: 52 ng/mL
Day 7/0 Hour
  Ba/ALB GEOMEAN: 8.9 ng/mg
  Ba/ALB MEAN: 13.4 ng/mg
  Ba/Cr GEOMEAN: 1.5 µg/mmol
  Ba/Cr MEAN: 4.0 µg/mmol
  Urine Ba GEOMEAN: 7.9 ng/mL
  Urine Ba MEAN: 51 ng/mL
Day 10
  Urine Ba GEOMEAN: 5.0 ng/mL
  Urine Ba MEAN: 28 ng/mL
Day 15 Taper
  Ba/ALB GEOMEAN: 4.9 ng/mg
  Ba/ALB MEAN: 13.4 ng/mg
  Ba/Cr GEOMEAN: 1.2 µg/mmol
  Ba/Cr MEAN: 4.1 µg/mmol
  Urine Ba GEOMEAN: 6.8 ng/mL
  Urine Ba MEAN: 41 ng/mL
Day 17 Taper
  Ba/ALB GEOMEAN: 6.9 ng/mg
  Ba/ALB MEAN: 15.4 ng/mg
  Ba/Cr GEOMEAN: 1.6 µg/mmol
  Ba/Cr MEAN: 4.2 µg/mmol
  Urine Ba GEOMEAN: 9.5 ng/mL
  Urine Ba MEAN: 41 ng/mL
Day 21 Taper
  Ba/ALB MEAN: 24.5 ng/mg
  Ba/Cr GEOMEAN: 2.6 µg/mmol
  Ba/Cr MEAN: 6.0 µg/mmol
  Urine Ba GEOMEAN: 17.2 ng/mL
  Urine Ba MEAN: 46 ng/mL
Follow-Up Day 24
  Ba/ALB MEAN: 38.5 ng/mg
  Ba/Cr GEOMEAN: 3.0 µg/mmol
  Ba/Cr MEAN: 11.6 µg/mmol
  Urine Ba GEOMEAN: 18.4 ng/mL
  Urine Ba MEAN: 92 ng/mL
Follow-Up Day 28
  Ba/ALB GEOMEAN: 17.4 ng/mg
  Ba/ALB MEAN: 34.3 ng/mg
  Ba/Cr GEOMEAN: 3.8 µg/mmol
  Ba/Cr MEAN: 9.3 µg/mmol
  Urine Ba GEOMEAN: 24.5 ng/mL
  Urine Ba MEAN: 90 ng/mL
Follow-Up Day 49
  Ba/ALB GEOMEAN: 20.7 ng/mg
  Ba/ALB MEAN: 143.0 ng/mg
  Ba/Cr GEOMEAN: 3.9 µg/mmol
  Ba/Cr MEAN: 22.6 µg/mmol
  Urine Ba GEOMEAN: 27.2 ng/mL
  Urine Ba MEAN: 334 ng/mL
two-week treatment
  Urinary Ba levels: reduced significantly; also recorded: reduced in all patients
  Urinary Ba levels normalized to urinary creatinine or albumin: reduced significantly

From patent publication US20210215714A1, “COMPLEMENT ALTERNATIVE PATHWAY-ASSOCIATED NEPHROPATHY BIOMARKERS” (Achillion Pharmaceuticals, Inc., priority 2018, published 2021)
